Read-outs that look alike come from different tables or passages of the source.
Legend:
Zymoseptoria tritici = experiment: Leaf Blotch of Wheat (SEPTTR) fungicidal activity; type: in vivo; conditions: Low Volume (121.5 g/H)
Description: Technical grades of materials were dissolved in acetone, which were then mixed with nine volumes of H2O containing 110 ppm Triton X-100. The fungicide solutions were applied onto wheat seedlings using an automated booth sprayer to run-off. All sprayed plants were allowed to air dry prior to further handling. All fungicides were evaluated using the aforementioned method for their activity vs. all target diseases, unless stated otherwise. Wheat leaf blotch and brown rust activity were also evaluated using track spray applications, in which case the fungicides were formulated as EC formulations, containing 0.1% Trycol 5941 in the spray solutions. Wheat plants (variety Yuma) were grown from seed in a greenhouse in 50% mineral soil/50% soil-less Metro mix until the first leaf was fully emerged, with 7-10 seedlings per pot. These plants were inoculated with an aqueous spore suspension of Zymoseptoria tritici either prior to or after fungicide treatments. After inoculation the plants were kept in 100% relative humidity (one day in a dark dew chamber followed by two to three days in a lighted dew chamber at 20° C.) to permit spores to germinate and infect the leaf. The plants were then transferred to a greenhouse set at 20° C. for disease to develop. When disease symptoms were fully expressed on the 1st leaves of untreated plants, infection levels were assessed on a scale of 0 to 100 percent disease severity. Percent disease control was calculated using the ratio of disease severity on treated plants relative to untreated plants.

Puccinia triticina = experiment: Wheat Brown Rust (PUCCRT) fungicidal activity; type: in vivo; conditions: Low Volume (121.5 g/H)
Description: Technical grades of materials were dissolved in acetone, which were then mixed with nine volumes of H2O containing 110 ppm Triton X-100. The fungicide solutions were applied onto wheat seedlings using an automated booth sprayer to run-off. All sprayed plants were allowed to air dry prior to further handling. All fungicides were evaluated using the aforementioned method for their activity vs. all target diseases, unless stated otherwise. Wheat leaf blotch and brown rust activity were also evaluated using track spray applications, in which case the fungicides were formulated as EC formulations, containing 0.1% Trycol 5941 in the spray solutions. Wheat plants (variety Yuma) were grown from seed in a greenhouse in 50% mineral soil/50% soil-less Metro mix until the first leaf was fully emerged, with 7-10 seedlings per pot. These plants were inoculated with an aqueous spore suspension of Puccinia triticina either prior to or after fungicide treatments. After inoculation the plants were kept in a dark dew room at 22° C. with 100% relative humidity overnight to permit spores to germinate and infect the leaf. The plants were then transferred to a greenhouse set at 24° C. for disease to develop. Fungicide formulation, application and disease assessment followed the procedures as described in the Example A.

[1] = 24 h, 1 Day Protectant, read-out: SEPTTR 1DP disease control
[2] = 72 h, 3 Day Curative, read-out: SEPTTR 3DC disease control
[3] = 24 h, 1 Day Protectant, read-out: PUCCRT 1DP disease control
[4] = 72 h, 3 Day Curative, read-out: PUCCRT 3DC disease control

**Q.** Which results are given for `COc1ccnc(C(=O)N[C@H]2CCCC[C@H](OCC(C)C)[C@@H](Oc3ccccc3)[C@H](C)OC2=O)c1OCOC(C)=O` [Compound 13]?
**A.** pest or weed control at 121.5 g/ha (Zymoseptoria tritici; [1]): > 80%; pest or weed control at 121.5 g/ha (Zymoseptoria tritici; [2]): > 80%; pest or weed control at 121.5 g/ha (Puccinia triticina; [3]): > 80%; pest or weed control at 121.5 g/ha (Puccinia triticina; [4]): > 80%

**Q.** Which pest or weed control at 121.5 g/ha (Zymoseptoria tritici; [1]) does the source give for `COc1ccnc(C(=O)N[C@H]2COCC[C@H](Cc3ccc(F)cc3)[C@@H](OC(=O)C(C)C)[C@H](C)OC2=O)c1OCOC(C)=O` [Compound 76] here?
**A.** > 80%

**Q.** What about the pest or weed control at 121.5 g/ha (Zymoseptoria tritici; [2]) of the same compound?
**A.** > 80%

**Q.** What about the pest or weed control at 121.5 g/ha (Puccinia triticina; [3]) of the same compound?
**A.** > 80%

**Q.** What about the pest or weed control at 121.5 g/ha (Puccinia triticina; [4]) of the same compound?
**A.** > 80%

**Q.** What does the source list for `COc1ccnc(C(=O)N[C@H]2COCC[C@H](OCc3ccccc3)[C@@H](OCc3ccccc3)[C@H](C)OC2=O)c1OCOC(C)=O` [Compound 1]?
**A.** pest or weed control at 121.5 g/ha (Zymoseptoria tritici; [1]): > 80%; pest or weed control at 121.5 g/ha (Zymoseptoria tritici; [2]): < 80%; pest or weed control at 121.5 g/ha (Puccinia triticina; [3]): > 80%

**Q.** For `COc1ccnc(C(=O)N[C@H]2COCC[C@H](Cc3ccc(F)cc3)[C@@H](Oc3ccccc3)[C@H](C)OC2=O)c1OCOC(C)=O` [Compound 72], which pest or weed control at 121.5 g/ha (Zymoseptoria tritici; [1]) is on record?
**A.** > 80%

**Q.** And the pest or weed control at 121.5 g/ha (Zymoseptoria tritici; [2])?
**A.** > 80%

**Q.** What about the pest or weed control at 121.5 g/ha (Puccinia triticina; [3]) of the same compound?
**A.** > 80%

**Q.** And the pest or weed control at 121.5 g/ha (Puccinia triticina; [4])?
**A.** > 80%

**Q.** For `COc1ccnc(C(=O)N[C@H]2CCOC[C@H](Oc3ccccc3)[C@@H](Oc3ccccc3)[C@H](C)OC2=O)c1OC(C)=O` [Compound 47], which pest or weed control at 121.5 g/ha (Zymoseptoria tritici; [1]) is on record?
**A.** > 80%

**Q.** What about the pest or weed control at 121.5 g/ha (Zymoseptoria tritici; [2]) of the same compound?
**A.** > 80%

**Q.** And the pest or weed control at 121.5 g/ha (Puccinia triticina; [3])?
**A.** > 80%

**Q.** What about the pest or weed control at 121.5 g/ha (Puccinia triticina; [4]) of the same compound?
**A.** > 80%

**Q.** Which pest or weed control at 121.5 g/ha (Zymoseptoria tritici; [1]) does the source give for `COc1ccnc(C(=O)N[C@H]2CCCC[C@@H]3OC(C)(C)O[C@H]3[C@H](C)OC2=O)c1OC(C)=O` [Compound 29] here?
**A.** < 80%

**Q.** What about the pest or weed control at 121.5 g/ha (Zymoseptoria tritici; [2]) of the same compound?
**A.** > 80%

**Q.** What about the pest or weed control at 121.5 g/ha (Puccinia triticina; [3]) of the same compound?
**A.** > 80%

**Q.** And the pest or weed control at 121.5 g/ha (Puccinia triticina; [4])?
**A.** > 80%

**Q.** For `CCCO[C@@H]1[C@@H](CC2CCCC2)CCCC[C@H](NC(=O)c2nccc(OC)c2OCOC(C)=O)C(=O)O[C@H]1C` [Compound 57], which pest or weed control at 121.5 g/ha (Zymoseptoria tritici; [1]) is on record?
**A.** < 80%

**Q.** What about the pest or weed control at 121.5 g/ha (Puccinia triticina; [3]) of the same compound?
**A.** > 80%

**Q.** What about the pest or weed control at 121.5 g/ha (Puccinia triticina; [4]) of the same compound?
**A.** < 80%

**Q.** What does the source list for `COc1ccc(C[C@H]2CCOC[C@H](NC(=O)c3nccc(OC)c3OCOC(C)=O)C(=O)O[C@@H](C)[C@@H]2Oc2ccccc2)cc1` [Compound 66]?
**A.** pest or weed control at 121.5 g/ha (Zymoseptoria tritici; [1]): > 80%; pest or weed control at 121.5 g/ha (Zymoseptoria tritici; [2]): > 80%; pest or weed control at 121.5 g/ha (Puccinia triticina; [3]): > 80%; pest or weed control at 121.5 g/ha (Puccinia triticina; [4]): < 80%

**Q.** With `CCCCCO[C@H]1[C@H](C)OC(=O)[C@@H](NC(=O)c2nccc(OC)c2OCOC(C)=O)CCCC[C@@H]1OC(=O)c1ccccc1` [Compound 15] as the compound, how does the pest or weed control at 121.5 g/ha (Zymoseptoria tritici; [1]) read?
**A.** > 80%

**Q.** What about the pest or weed control at 121.5 g/ha (Zymoseptoria tritici; [2]) of the same compound?
**A.** > 80%

**Q.** And the pest or weed control at 121.5 g/ha (Puccinia triticina; [3])?
**A.** > 80%

**Q.** What about the pest or weed control at 121.5 g/ha (Puccinia triticina; [4]) of the same compound?
**A.** < 80%

**Q.** Which results are given for `COc1ccnc(C(=O)N[C@H]2COCC[C@H](Cc3ccc(F)cc3)[C@@H](OC(=O)C(C)C)[C@H](C)OC2=O)c1OC(C)=O` [Compound 75]?
**A.** pest or weed control at 121.5 g/ha (Zymoseptoria tritici; [1]): > 80%; pest or weed control at 121.5 g/ha (Zymoseptoria tritici; [2]): < 80%; pest or weed control at 121.5 g/ha (Puccinia triticina; [3]): > 80%; pest or weed control at 121.5 g/ha (Puccinia triticina; [4]): > 80%

**Q.** Which pest or weed control at 121.5 g/ha (Zymoseptoria tritici; [1]) does the source give for `COc1ccnc(C(=O)N[C@H]2CCCC[C@H](CC3CCCC3)[C@@H](OC)[C@H](C)OC2=O)c1OC(C)=O` [Compound 59] here?
**A.** < 80%

**Q.** And the pest or weed control at 121.5 g/ha (Puccinia triticina; [3])?
**A.** > 80%

**Q.** And the pest or weed control at 121.5 g/ha (Puccinia triticina; [4])?
**A.** > 80%

**Q.** How did the pest or weed control at 121.5 g/ha (Zymoseptoria tritici; [2]) turn out when `COc1ccnc(C(=O)N[C@H]2CCCC[C@H](OC)[C@@H](OC)[C@H](C)OC2=O)c1OCOC(C)=O` [Compound 22] was run?
**A.** < 80%

**Q.** What about the pest or weed control at 121.5 g/ha (Puccinia triticina; [3]) of the same compound?
**A.** > 80%

**Q.** What about the pest or weed control at 121.5 g/ha (Puccinia triticina; [4]) of the same compound?
**A.** > 80%

**Q.** Which pest or weed control at 121.5 g/ha (Zymoseptoria tritici; [1]) does the source give for `COc1ccnc(C(=O)N[C@H]2CCCC[C@H](OC)[C@@H](OC3CCCC3)[C@H](C)OC2=O)c1OCOC(C)=O` [Compound 34] here?
**A.** < 80%

**Q.** And the pest or weed control at 121.5 g/ha (Zymoseptoria tritici; [2])?
**A.** > 80%

**Q.** And the pest or weed control at 121.5 g/ha (Puccinia triticina; [3])?
**A.** > 80%

**Q.** What about the pest or weed control at 121.5 g/ha (Puccinia triticina; [4]) of the same compound?
**A.** > 80%

**Q.** Which pest or weed control at 121.5 g/ha (Puccinia triticina; [3]) does the source give for `COc1ccnc(C(=O)N[C@H]2CCOC[C@H](OCC(C)C)[C@@H](OCC(C)C)[C@H](C)OC2=O)c1OCOC(C)=O` [Compound 43] here?
**A.** > 80%

**Q.** What about the pest or weed control at 121.5 g/ha (Puccinia triticina; [4]) of the same compound?
**A.** < 80%

**Q.** What does the source list for `COc1ccnc(C(=O)N[C@H]2CCCC[C@H](OC3CCCC3)[C@@H](OC)[C@H](C)OC2=O)c1OCOC(C)=O` [Compound 35]?
**A.** pest or weed control at 121.5 g/ha (Puccinia triticina; [3]): > 80%; pest or weed control at 121.5 g/ha (Puccinia triticina; [4]): < 80%

Reference: patent US20180002320A1, “USE OF MACROCYCLIC PICOLINAMIDES AS FUNGICIDES” (DOW AGROSCIENCES LLC, priority 2014, published 2018)
